The text below walks through data of ChEMBL document CHEMBL3507680, “University of Dundee, Gates Library screen for HepG2 cell viability”.

A short description of this data set: Human HepG2 cell viability assay in 384 well format. It is filed as toxicity, cell-based. Also on record: dose 125 nL, time 70.5 hour; cytotoxicity at 70.5 h: concentration not given beside the values. As to conditions: HepG2 cells, read-out: Inhibition.
Consider `O=C(NCc1ccccn1)[C@@H]1CC[C@@H]2[C@@H](CCN2c2ncc(F)cn2)O1`, for which the cytotoxicity at 70.5 h was -11.3%. Next, `COCCCC1(C(=O)O)CCCN(C(=O)c2ccc(Cl)cc2F)C1` (stereo not given): -10.9%. Next, `COc1ccc(CCCN(C)C(=O)c2cc(Cl)c[nH]2)cc1OC`: -10.5%; `CCc1ncnc(N(C)CC2CCCCO2)c1F` (stereo not given): 2.36%; `CCN(C)C(=O)c1cccc(S(=O)(=O)NCCc2csc(N)n2)c1`: 19.2%. Next, `c1cncc(N2CCOCC3(CN(Cc4cccs4)CCO3)C2)c1` (stereo not given): 19.2%. For the compound `Cn1cc(C(C)(O)CNc2ccccn2)cn1` (stereo not given), the cytotoxicity at 70.5 h was found to be 2.38%. Next, `CN(C)C(=O)CN1C[C@@H]2CC[C@H](C1)N(Cc1ccccc1OCCO)C2`: -9.08%; `O=C(NCc1ccnc(C2CCCOC2)n1)c1cccs1` (stereo not given): 14.1%; `CCc1ccccc1OC1CN(CC2CCOC2)C1` (stereo not given): 29.4%. Next, `Cc1[nH]ccc1C(=O)N1CCC(c2nnc(Cn3cccn3)n2C)CC1`: -0.908%.

Regarding `CC(C)Cc1noc(CN2CCN(c3nccs3)CC2)n1`, the cytotoxicity at 70.5 h was -3.87%. With `CC(=O)c1ccc(OCC(C)O)cc1O` (stereo not given) the figure was 5.87%; with `COCCOCCC(=O)N1CCC(c2ccccc2C)C1` (stereo not given), -4.21%. With `CCCS(=O)(=O)N1CCN(c2ccc3nnc(CC)n3n2)CC1` the figure was -12.7%; with `O=C(c1cnc(-c2ccco2)s1)N1CCCC1Cn1cccn1` (stereo not given), 1.15%. With `CCc1cc(N[C@@H]2CC[C@@H](N)C2)n2nc(C)c(C)c2n1` the figure was -7.75%; with `O=C(CNc1ccc(F)cc1OCC(F)(F)F)NCc1ccco1`, -10.6%; with `CC(=O)N1CCC[C@H]1C(=O)N(C)CCCOc1ccccc1`, -2.16%. For `O=C(c1ccnnc1)N1C[C@@H]2OCCN(CCN3CCCC3)[C@@H]2C1`, the cytotoxicity at 70.5 h was 4.4%.

For the compound `C[C@@H]1CN(c2cc(N3CCC(O)CC3)ncn2)C[C@@]1(O)C1CC1`, the cytotoxicity at 70.5 h is -0.962%.

As to `O=C(c1cc(-n2cnnn2)ccc1Cl)N1CCN(c2ccccc2)CC1`, the cytotoxicity at 70.5 h was -1.12%. As for `CN(Cc1ccc(Cl)s1)C1CCCN(c2cccnn2)C1` (stereo not given), the cytotoxicity at 70.5 h is -11.8%. With `COc1ccc2c(ccn2CCC(=O)Nc2ccc(C(N)=O)cc2)c1` the figure was -7.39%; with `CCOCC1c2c(ncn2C)CCN1C(=O)c1cnc(C)cn1` (stereo not given), -12%; with `COCC(=O)NCCc1ccc(Cl)s1`, -9.93%. With `CCSCCNc1nc2c(s1)c(C)nn2C` the figure was -14.5%; with `Cc1ccc(N2CCO[C@H]3CN(Cc4ccc(F)cc4)C[C@H]32)nn1`, -7.45%; with `CCO[C@@H]1C[C@H]2CN(S(=O)(=O)c3cccs3)CCN2C1`, -4.39%. With `CC(=O)N1CCCC1C(=O)NCCOc1c(C)cccc1C` (stereo not given) the figure was -1.77%; with `CN(Cc1ccc2c(c1)OCO2)C(=O)C1CC(c2cccc(F)c2)=NO1` (stereo not given), -9.63%; with `Cc1ccc(CN2CCc3[nH]nc(C(=O)N4CCN(C)CC4)c3C2)o1`, 23.5%.

In the case of `Cc1nc(NC2CCCC2)cc(C2CCN2c2ncccn2)n1` (stereo not given), the cytotoxicity at 70.5 h is -5.59%.

As for `CCCc1nnsc1C(=O)N1CCN(CC(O)c2ccco2)CC1` (stereo not given), the cytotoxicity at 70.5 h was -0.0412%. Next, `Cc1ncsc1-c1nnc(C2CCCN2C(=O)Cn2cccn2)o1` (stereo not given): 3.13%; `CCc1ccc(CN2CCCn3c(nc(Cn4ccnc4)cc3=O)C2)o1`: -0.664%; `CCN(CC(=O)NC1(C)CCS(=O)(=O)C1)Cc1ccc(OC)c(F)c1` (stereo not given): -9.28%. With `Cc1ccc(CN2C[C@@H]3CCN(Cc4cccnc4)C(=O)[C@H]3C2)s1` the figure was 14.5%; with `O=C(NCC(c1ccccc1)N1CCOCC1)Nc1cn[nH]c1` (stereo not given), 1.36%; with `CCS(=O)(=O)CC(=O)NC(C)c1ccc(OCCC(C)C)cc1` (stereo not given), -1.31%. Next, `CCS(=O)(=O)c1ncc(CN(C)Cc2ccccn2)n1CCOC`: -5.34%. Turning to `COc1ccc(-c2cc(C3CCN(C(C)=O)CC3)ccn2)cc1`, the cytotoxicity at 70.5 h is -7.99%. With `N#Cc1cccc(Cl)c1NCCCc1nc(=O)[nH][nH]1` the figure was -9.76%. Consider `Cc1[nH]nc(-c2ccc(F)cc2)c1CC(=O)NCC1CCOCC1`, for which the cytotoxicity at 70.5 h was -9.72%. Next, `CN(C)C[C@@H]1C[C@@H]2CN(C(=O)Cc3cccs3)CC[C@@H]2N1C`: 13.4%; `CN1CCC2(CC1)CN(C)C(=O)C[C@@H]2C(F)(F)F`: -2.18%.

On to `CN1CCC(N2CCC(C(=O)N(C)C)CC2)CC1`, for which the cytotoxicity at 70.5 h was -0.525%. Next, `CCc1nc(C2CCCN(c3ncc(Br)cn3)C2)no1` (stereo not given): -14.4%.

With `OC1(CNCCc2nc3c(s2)CCCC3)CNCCOC1` (stereo not given), the cytotoxicity at 70.5 h was 4.06%. With `CCN1CC(C(=O)NCCc2csc(-c3ccncc3)n2)CC1=O` (stereo not given) the figure was -4.27%; with `CCOC(=O)C1CCN(C(=O)Cc2c(C)nc(C)[nH]c2=O)CC1`, 12.3%. Turning to `Cc1cccc(C2(C(=O)NCCCn3cccn3)CC2)c1`, the cytotoxicity at 70.5 h is -5.49%. Next, `C[C@@H]1CN(C(=O)CCN2CCCC2)CC[C@@]1(O)C1CCOCC1`: -6.69%. Next, `CN(Cc1ccco1)C(=O)CN1CCCCC1Cn1cccn1` (stereo not given): -12.4%; `COCCn1ccc2c(C(=O)O)cccc21`: -3.92%; `O=C(O)c1cc2c(nc1-c1ccoc1)CCN(Cc1ccco1)CC2`: -14.2%.

For `COCC(C)N(Cc1ccccc1OC)C(=O)c1cc(C)[nH]c(=O)c1` (stereo not given), the cytotoxicity at 70.5 h was -5.15%. For the compound `CN(CCCSc1ccccc1)C(=O)Cn1ncc(N(C)C)cc1=O`, the cytotoxicity at 70.5 h is -7.24%. Next, `CCc1ncc2c(n1)CN(CC(=O)Nc1ccc(Cl)cn1)CC2`: 32.4%; `CC(=O)N1CC(=O)N(c2ccccc2)CC12CCN(CC1CC1)C2` (stereo not given): 7.19%; `CC(=O)Nc1cc(C2CC2)nn1-c1nc(C)c(C)c(=O)[nH]1`: 38.4%. With `CN1[C@@H](C(=O)NCC2CC2)C[C@@H]2CN(Cc3ccco3)C[C@@H]21` the figure was -12.2%; with `Cc1nccn1CC1CCCN(C(=O)c2cnn(C)c2)C1` (stereo not given), -12.8%; with `Cc1nc2c(c(N(C)CC3Cc4ccccc4CN3C)n1)CCNCC2` (stereo not given), 11.4%.

Consider `CN(C(=O)Nc1nncs1)C1CCN(c2ccccc2Cl)C1=O` (stereo not given), for which the cytotoxicity at 70.5 h was -21.1%. With `CCOC(=O)c1ccc(S(=O)(=O)NCC(CC)N2CCCC2)cc1` (stereo not given) the figure was -5.87%; with `Fc1cccc(OC2CCN(Cc3ncc[nH]3)CC2)c1`, 18%. With `CCc1ncc(C(=O)NC(C)(C)CC)s1` the figure was -1.24%; with `CCn1cc(NC(=O)NCC(O)COc2cccc(F)c2)cn1` (stereo not given), -4.45%. With `CCc1cn[nH]c1C1CCN(C(=O)c2cc(C#N)c(=O)[nH]c2C)CC1` the figure was -3.13%; with `CCn1cnnc1C1CCN(C(=O)c2cccc(N(C)C)c2)CC1`, 1.66%.

`COc1coc(CN2CCCC(CCc3c(F)cccc3F)C2)cc1=O` (stereo not given): the cytotoxicity at 70.5 h was -2.32%. With `Cc1noc(C)c1C(=O)N1CCC(c2[nH]ncc2S(C)(=O)=O)C1` (stereo not given) the figure was -1.52%.

Turning to `CC(C)Cn1ncc(C(=O)NS(=O)(=O)C2CCCC2)c1C1CC1`, the cytotoxicity at 70.5 h was -8.4%.

As for `CC(=O)c1cccc(NC(=O)N2CCCCC2CN2CCCC2=O)c1` (stereo not given), the cytotoxicity at 70.5 h is -7.82%.

On to `CCOCCn1nc(C)cc1C(=O)N(C)Cc1cccc2ncccc12`, for which the cytotoxicity at 70.5 h is 20.2%. Next, `CCN1CCN(CCCNC(=O)c2cc3ccc(C)cc3nc2C)CC1`: -2.81%; `CN(Cc1ccc(F)cc1)CC1(O)CCN(C(=O)c2ccncc2)C1` (stereo not given): -5.43%.

In the case of `Cc1cc(C(=O)N(C)C)c2c(Br)cccc2n1`, the cytotoxicity at 70.5 h is -10.8%. Next, `CC(C)CNC(=O)N1CCC2(CCCO2)C1` (stereo not given): -1.61%; `Cc1ccsc1CN(C)Cc1nc2c(cnn2C)c(=O)[nH]1`: -7.29%; `NC(=O)C1CCN(C(=O)c2ccccc2OCc2ccccc2Cl)CC1`: 12.3%.

Turning to `O=C(O)c1ccc2c(c1)C1(CCCCC1)CN2C(=O)c1cccs1`, the cytotoxicity at 70.5 h is -4.48%. Next, `Cc1nc(CN2CCN(C(=O)CC(C)(C)c3ccccc3)CC2)no1`: -5.37%; `CCS(=O)(=O)N1CCc2ncnc(C)c2CC1`: -1.43%; `Cn1cc(C(=O)Nc2cccc(F)c2)ccc1=O`: 0.823%.

Take `Cc1noc(C)c1-c1cc(CCC2CN(C(=O)C(C)C)CCO2)ncn1` (stereo not given): the cytotoxicity at 70.5 h is -3.99%.

`COc1cccc(NC(=O)C(C)Cn2cc(Cl)cn2)c1` (stereo not given): the cytotoxicity at 70.5 h was -7.91%.

`COc1cccc(N2CC3(CCN(c4ccncn4)C3)CC2=O)c1` (stereo not given): the cytotoxicity at 70.5 h is 14.6%. For `CN(C)CCCNc1ncnc2cccc(F)c12`, the cytotoxicity at 70.5 h is 15.7%. With `Cc1ccc(C(C)(O)CNC(=O)c2sccc2Br)o1` (stereo not given) the figure was 4.05%. With `CC(NC(=O)N(C)Cc1ccc2c(c1)OCCO2)c1nncn1C` (stereo not given) the figure was -0.921%; with `O=c1ncn(-c2cccc(F)c2)c2ncccc12`, -0.419%; with `O=C1CC2(CCN(Cc3ccoc3)C2)CN1c1cncnc1` (stereo not given), -4.55%. Next, `CCOc1ncccc1C(=O)N1CCCC(n2nc(C)nc2C)C1` (stereo not given): -11.7%; `CCOc1ccccc1CN(CC)Cc1ccc(S(=O)(=O)NC)cc1`: -5.11%; `Cc1cc(NCc2cc3n(n2)CCCN(C(=O)C2CCC2)C3)ncn1`: 0.388%. For the compound `CCN(CC)CCCNC(=O)Nc1c(C)cccc1C(C)C`, the cytotoxicity at 70.5 h was -4.07%. Next, `Cc1noc(-c2cccnc2N(C)Cc2cscn2)n1`: -5.46%; `CC(C)c1cccc(-n2cc(O)c(C(=O)O)n2)c1`: -5.44%.
